Earlier results, collected in US20230012071A1, “MODIFIED RELEASE PHARMACEUTICAL COMPOSITIONS OF RIOCIGUAT” (ZYDUS LIFESCIENCES LIMITED, priority 2019, published 2023).

Details: existing marketed immediate release tablet

absolute bioavailability: about 94% | time at which peak plasma concentrations are observed following drug administration: ≤ 1.5 h
Structure (SMILES): COC(=O)N(C)c1c(N)nc(-c2nn(Cc3ccccc3F)c3ncccc23)nc1N
